The target of one assay is T1, recombinant human DPP7 (Homo sapiens, UniProt Q9UHL4).
T1 construct: purchased R&D Systems
Nature of the assay: DPP7 inhibition, fluorogenic substrate Lys-Pro-AMC. The conditions noted are these: recombinant human DPP7. It is filed as biochemical. In outline: (§1)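 Enzyme per reaction: 50 ng DPP9, 20 ng DPP8, 10 ng each DPP7 and PREP. Compounds were serially diluted (8 points, up to 0.5% DMSO) and incubated at 25 °C.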

The target of a further assay is T2, recombinant human DPP9 (Homo sapiens, UniProt Q86TI2).
T2 construct: purchased R&D Systems
T2 sequence (Q86TI2 whole entry): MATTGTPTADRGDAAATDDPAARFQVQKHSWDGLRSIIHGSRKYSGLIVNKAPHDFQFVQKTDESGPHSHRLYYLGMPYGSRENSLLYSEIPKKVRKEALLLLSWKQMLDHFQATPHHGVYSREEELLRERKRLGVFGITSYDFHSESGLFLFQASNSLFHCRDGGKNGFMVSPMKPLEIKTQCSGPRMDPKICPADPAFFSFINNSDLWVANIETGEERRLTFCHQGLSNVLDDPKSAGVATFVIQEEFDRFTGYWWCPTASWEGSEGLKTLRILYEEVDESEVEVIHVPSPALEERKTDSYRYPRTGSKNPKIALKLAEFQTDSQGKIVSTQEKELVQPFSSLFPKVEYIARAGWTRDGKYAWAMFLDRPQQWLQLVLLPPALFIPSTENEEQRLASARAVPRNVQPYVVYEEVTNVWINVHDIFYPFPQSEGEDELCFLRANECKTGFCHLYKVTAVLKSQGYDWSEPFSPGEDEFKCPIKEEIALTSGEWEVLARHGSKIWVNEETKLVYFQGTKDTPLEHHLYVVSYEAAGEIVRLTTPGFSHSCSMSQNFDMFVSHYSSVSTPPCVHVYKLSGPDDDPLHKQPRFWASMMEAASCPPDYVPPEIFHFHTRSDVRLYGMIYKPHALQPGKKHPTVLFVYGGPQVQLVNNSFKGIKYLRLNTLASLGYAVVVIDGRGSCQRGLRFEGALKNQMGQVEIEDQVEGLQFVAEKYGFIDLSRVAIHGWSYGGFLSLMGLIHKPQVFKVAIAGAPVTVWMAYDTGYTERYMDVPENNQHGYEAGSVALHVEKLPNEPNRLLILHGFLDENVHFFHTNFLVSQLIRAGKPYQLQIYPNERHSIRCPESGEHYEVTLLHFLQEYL
Nature of the assay: DPP9 inhibition, fluorogenic substrate H-Gly-Pro-AMC. The following applies: recombinant human DPP9. Type of assay: biochemical. In short, it runs like this:
as §1

Assay [1] has as its target T3, DPP4 (Homo sapiens, UniProt P27487). Nature of the assay: DPP4 inhibition, fluorogenic substrate H-Gly-Pro-AMC. Type of assay: biochemical. Details: purchased R&D Systems. The following applies: recombinant human DPP4.
Target sequence in this assay (P27487 whole entry): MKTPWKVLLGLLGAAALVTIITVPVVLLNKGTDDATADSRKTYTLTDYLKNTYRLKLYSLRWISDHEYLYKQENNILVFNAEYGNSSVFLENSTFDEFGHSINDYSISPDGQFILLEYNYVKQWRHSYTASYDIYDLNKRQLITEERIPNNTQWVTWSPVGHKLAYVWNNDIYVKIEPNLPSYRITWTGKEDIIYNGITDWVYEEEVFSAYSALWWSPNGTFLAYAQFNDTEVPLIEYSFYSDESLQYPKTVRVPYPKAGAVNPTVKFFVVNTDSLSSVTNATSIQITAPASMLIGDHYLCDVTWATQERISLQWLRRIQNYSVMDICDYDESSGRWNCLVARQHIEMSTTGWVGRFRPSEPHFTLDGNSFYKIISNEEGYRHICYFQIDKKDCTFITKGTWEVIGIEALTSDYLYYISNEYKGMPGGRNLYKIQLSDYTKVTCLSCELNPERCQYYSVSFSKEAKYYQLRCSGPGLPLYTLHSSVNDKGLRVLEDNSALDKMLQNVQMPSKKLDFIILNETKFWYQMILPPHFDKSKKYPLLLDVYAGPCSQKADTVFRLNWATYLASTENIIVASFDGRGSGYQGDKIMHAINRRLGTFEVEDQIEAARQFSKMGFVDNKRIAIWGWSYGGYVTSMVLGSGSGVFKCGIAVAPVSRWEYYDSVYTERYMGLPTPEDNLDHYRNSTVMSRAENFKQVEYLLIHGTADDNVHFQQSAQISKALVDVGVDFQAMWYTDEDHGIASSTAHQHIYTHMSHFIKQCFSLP
The target of another assay is T4, Recombinant human FAP (Homo sapiens, UniProt Q12884).
T4 construct: purchased R&D systems
T4 sequence (Q12884 1-760): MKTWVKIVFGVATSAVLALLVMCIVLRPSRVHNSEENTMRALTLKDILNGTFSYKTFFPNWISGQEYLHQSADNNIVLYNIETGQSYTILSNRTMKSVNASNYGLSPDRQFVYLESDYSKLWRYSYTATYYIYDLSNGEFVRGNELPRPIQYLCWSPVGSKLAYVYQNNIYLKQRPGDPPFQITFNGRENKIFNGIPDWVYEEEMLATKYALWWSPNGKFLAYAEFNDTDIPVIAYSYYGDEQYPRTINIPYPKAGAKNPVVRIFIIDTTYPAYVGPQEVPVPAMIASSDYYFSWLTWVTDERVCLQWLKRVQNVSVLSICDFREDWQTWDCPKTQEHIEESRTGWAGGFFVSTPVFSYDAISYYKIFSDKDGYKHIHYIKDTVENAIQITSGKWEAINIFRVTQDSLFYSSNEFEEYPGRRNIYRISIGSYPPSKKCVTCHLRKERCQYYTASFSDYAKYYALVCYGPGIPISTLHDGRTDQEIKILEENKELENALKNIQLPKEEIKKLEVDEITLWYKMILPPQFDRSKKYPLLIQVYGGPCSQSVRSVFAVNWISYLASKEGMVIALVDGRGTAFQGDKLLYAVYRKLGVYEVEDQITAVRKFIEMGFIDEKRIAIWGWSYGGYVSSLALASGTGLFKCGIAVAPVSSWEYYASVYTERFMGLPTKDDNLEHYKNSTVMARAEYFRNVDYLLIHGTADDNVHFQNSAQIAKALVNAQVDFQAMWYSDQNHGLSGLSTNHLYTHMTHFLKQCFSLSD
The assay can be described thus: FAP FRET assay, FGF21-sequence FRET peptide substrate. Type of assay: biochemical. The conditions noted are these: FRET peptide with human FGF21 sequence, 6 μM, 37° C. In outline:
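Recombinant human FAP, 10 ng per reaction, in 50 mM HEPES pH 7.2 with 150 mM NaCl, 0.1 mg/ml BSA, 1 mM EDTA; HyLite Fluor 488/QXL 520 FRET peptide of human FGF21 sequence at 6 μM final, ≤0.1% DMSO, 37° C. IC50 from 8-point curves by four-parameter logistic fit.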

Another assay concerns the target T5, recombinant human PREP (Homo sapiens, UniProt P48147).
T5 construct: purchased R&D System
T5 sequence (P48147 1-710): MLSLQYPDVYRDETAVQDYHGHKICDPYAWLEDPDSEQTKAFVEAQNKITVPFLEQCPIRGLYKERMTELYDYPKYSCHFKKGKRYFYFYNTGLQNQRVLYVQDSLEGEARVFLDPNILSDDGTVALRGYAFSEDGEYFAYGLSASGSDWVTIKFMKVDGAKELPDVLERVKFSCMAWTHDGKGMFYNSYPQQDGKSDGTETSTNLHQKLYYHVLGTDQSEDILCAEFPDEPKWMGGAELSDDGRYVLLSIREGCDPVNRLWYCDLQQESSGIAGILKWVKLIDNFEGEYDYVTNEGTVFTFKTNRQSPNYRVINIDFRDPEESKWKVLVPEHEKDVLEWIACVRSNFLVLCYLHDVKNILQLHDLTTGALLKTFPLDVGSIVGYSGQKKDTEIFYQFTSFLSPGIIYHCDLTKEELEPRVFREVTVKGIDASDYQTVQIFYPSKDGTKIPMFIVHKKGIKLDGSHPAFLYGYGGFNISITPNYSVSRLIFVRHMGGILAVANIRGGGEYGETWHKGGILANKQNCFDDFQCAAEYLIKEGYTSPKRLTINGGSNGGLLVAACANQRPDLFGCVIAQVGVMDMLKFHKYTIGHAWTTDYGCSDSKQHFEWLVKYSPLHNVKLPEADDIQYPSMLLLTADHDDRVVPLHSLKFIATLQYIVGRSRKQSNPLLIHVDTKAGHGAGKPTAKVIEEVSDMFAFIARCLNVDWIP
Nature of the assay: PREP inhibition, fluorogenic substrate Z-Gly-Pro-AMC. Type of assay: biochemical. The following applies: Inhibitory Activity (IC50, nM) PREP, recombinant human PREP. In short, it runs like this:
as §1

The next assay addresses T6, recombinant human DPP8 (Homo sapiens, UniProt Q6V1X1).
T6 construct: purchased PBS Bioscience
The assay can be described thus: DPP8 inhibition, fluorogenic substrate Z-Ala-Pro-AMC. It is filed as biochemical. The following applies: recombinant human DPP8. In short, it runs like this:
as §1

The target in assay [2] is T3, DPP4. The following applies: cited from earlier work.
Target sequence in this assay (P27487 whole entry, species assumed): as the sequence (P27487 whole entry) above
A further assay concerns tumors. The conditions noted are these: orally administered, mice; cited from earlier work.

T6 sequence (Q6V1X1 whole entry): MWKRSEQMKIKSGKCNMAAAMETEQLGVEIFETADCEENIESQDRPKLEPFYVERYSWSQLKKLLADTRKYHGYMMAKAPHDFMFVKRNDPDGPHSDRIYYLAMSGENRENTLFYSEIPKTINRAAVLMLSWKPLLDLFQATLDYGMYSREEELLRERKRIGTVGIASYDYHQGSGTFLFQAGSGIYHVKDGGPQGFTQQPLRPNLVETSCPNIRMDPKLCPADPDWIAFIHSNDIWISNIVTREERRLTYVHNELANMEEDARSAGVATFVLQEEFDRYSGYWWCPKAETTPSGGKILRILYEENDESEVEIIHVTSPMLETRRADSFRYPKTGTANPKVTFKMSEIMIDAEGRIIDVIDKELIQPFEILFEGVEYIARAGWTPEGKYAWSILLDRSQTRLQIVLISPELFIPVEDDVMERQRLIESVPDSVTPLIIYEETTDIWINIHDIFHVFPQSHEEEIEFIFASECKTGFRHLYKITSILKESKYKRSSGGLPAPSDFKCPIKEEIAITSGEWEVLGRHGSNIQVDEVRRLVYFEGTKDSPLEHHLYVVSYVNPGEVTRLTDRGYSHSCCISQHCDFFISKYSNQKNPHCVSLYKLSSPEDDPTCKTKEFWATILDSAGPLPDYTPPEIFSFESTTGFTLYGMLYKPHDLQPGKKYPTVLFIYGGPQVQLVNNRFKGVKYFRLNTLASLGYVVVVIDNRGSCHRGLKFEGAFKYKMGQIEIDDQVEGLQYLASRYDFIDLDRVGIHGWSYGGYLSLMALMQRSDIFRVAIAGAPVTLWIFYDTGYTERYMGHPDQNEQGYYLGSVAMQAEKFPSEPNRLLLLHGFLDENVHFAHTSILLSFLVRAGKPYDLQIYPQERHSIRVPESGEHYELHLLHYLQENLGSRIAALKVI

Consider `N#C[C@@H]1C[C@H](F)CN1C(=O)CN1CCC(Nc2ccc(C(=O)Nc3ccon3)c3ncccc23)CC1` [Example 407, N-isoxazol-3-yl-5-[[1-[2-oxo-2-[(2S,4S)-2-cyano-4-fluoro-pyrrolidin-1-yl]ethyl]-4-piperidyl]amino]quinoline-8-carboxamide], for which the IC50 (in general, the midpoint of a concentration-inhibition curve) was 0.395 µM at recombinant human DPP7; 0.756 µM on recombinant human DPP9; 1.82 µM on DPP4 [1]; 0.0034 µM at Recombinant human FAP; less than 30 nM on recombinant human PREP; 0.314 µM on recombinant human DPP8.
Consider `N#C[C@@H]1CCCN1C(=O)CN1CCC(Oc2ccnc3ccc(F)cc23)CC1` [Example 427, (2S)-1-[2-[4-[(6-fluoro-4-quinolyl)oxy]-1-piperidyl]acetyl]pyrrolidine-2-carbonitrile], for which the IC50 on recombinant human DPP7 was 15.8 µM; on recombinant human DPP9, not below 100 µM; at DPP4 [1] it was 37.2 µM; on Recombinant human FAP it was 0.0056 µM; on recombinant human PREP, 5010 nM; at recombinant human DPP8 it was 36.6 µM.
In the case of `N#C[C@@H]1C[C@H](F)CN1C(=O)CN1CCC(Oc2ccnc3cc(F)ccc23)CC1` [Example 433, (2S,4S)-4-fluoro-1-[2-[4-[(7-fluoro-4-quinolyl)oxy]-1-piperidyl]acetyl]pyrrolidine-2-carbonitrile], the IC50 at recombinant human DPP7 is 3.07 µM; at recombinant human DPP9, 3.89 µM; at DPP4 [1], 5.68 µM; on Recombinant human FAP it was 0.0051 µM; at recombinant human PREP it was 98 nM; at recombinant human DPP8 it was 3.06 µM.
As for `N#Cc1cccc2c(OC3CCN(CC(=O)N4C[C@@H](F)C[C@H]4C#N)CC3)ccnc12` [Example 434, 4-[[1-[2-oxo-2-[(2S,4S)-2-cyano-4-fluoro-pyrrolidin-1-yl]ethyl]-4-piperidyl]oxy]quinoline-8-carbonitrile], the IC50 at recombinant human DPP7 was found to be 4.31 µM; on recombinant human DPP9 it was 4.51 µM; on DPP4 [1], 2.44 µM; on Recombinant human FAP, 0.0036 µM; on recombinant human PREP it was 395 nM; at recombinant human DPP8 it was 2.74 µM.
For the compound `Cc1cc(OC2CCN(CC(=O)N3C[C@@H](F)C[C@H]3C#N)CC2)c2ccccc2n1` [Example 436, (2S,4S)-4-fluoro-1-[2-[4-[(2-methyl-4-quinolyl)oxy]-1-piperidyl]acetyl]pyrrolidine-2-carbonitrile], the IC50 on recombinant human DPP7 amounted to 8.51 µM; at recombinant human DPP9, 18.2 µM; on DPP4 [1], 9.04 µM; at Recombinant human FAP, 0.0111 µM; at recombinant human PREP, 555 nM; at recombinant human DPP8 it was 11.7 µM.
As to `Cc1cc(OC2CCN(CC(=O)N3C[C@@H](F)C[C@H]3C#N)CC2)c2cc(F)ccc2n1` [Example 437, (2S,4S)-4-fluoro-1-[2-[4-[(6-fluoro-2-methyl-4-quinolyl)oxy]-1-piperidyl]acetyl]pyrrolidine-2-carbonitrile], the IC50 at recombinant human DPP7 came out at 6.26 µM; at recombinant human DPP9, 17.4 µM; on DPP4 [1], 4.49 µM; at Recombinant human FAP, 0.0018 µM; at recombinant human PREP, 454 nM; at recombinant human DPP8, 4.15 µM.
Turning to `COc1cccc2c(OC3CCN(CC(=O)N4C[C@@H](F)C[C@H]4C#N)CC3)ccnc12` [Example 438, (2S,4S)-4-fluoro-1-[2-[4-[(8-methoxy-4-quinolyl)oxy]-1-piperidyl]acetyl]pyrrolidine-2-carbonitrile], the IC50 was 3.58 µM at recombinant human DPP7; 5.97 µM on recombinant human DPP9; 5.67 µM on DPP4 [1]; 0.0077 µM at Recombinant human FAP; 156 nM on recombinant human PREP; 3.38 µM on recombinant human DPP8.
Turning to `Cc1cccc2c(OC3CCN(CC(=O)N4C[C@@H](F)C[C@H]4C#N)CC3)ccnc12` [Example 439, (2S,4S)-4-fluoro-1-[2-[4-[(8-methyl-4-quinolyl)oxy]-1-piperidyl]acetyl]pyrrolidine-2-carbonitrile], the IC50 worked out at 3.11 µM at recombinant human DPP7; 5.46 µM on recombinant human DPP9; 6.31 µM on DPP4 [1]; 0.0037 µM at Recombinant human FAP; 75 nM at recombinant human PREP; 2.7 µM on recombinant human DPP8.
Take `CC(C)[C@H](N)C(=O)N1CCC[C@H]1B(O)O` [Val-boroPro, Talabostat]: on DPP4 [2], the DPP4 inhibitory activity entry is given as “inhibitory activity”.
Turning to `CC(C)[C@H](N)C(=O)N1CCC[C@H]1B(O)O` [ValboroPro, Val-boroPro], the anticancer activities entry in the assay with tumors is “exhibits anticancer activities in mice by delaying the proliferation of tumors and inducing the degeneration of tumors”.

(Values after US11655235B2, “Pyrrolidine and piperidine compounds” (YUHAN CORPORATION, priority 2019, dated 2023).)
